For assay [1], the system named is invariant Vα14 NKT cell hybridomas. As to the kind of experiment: Invariant Vα14 NKT cell hybridomas with glycolipid-loaded immobilized CD1d, IL-2. The class given is cell-based, mouse. The settings on record: immobilized recombinant CD1d loaded with glycolipid; three hybridomas (RT2, RT23, RT24). The method, then:
(§1) In FIG. 7A, NKT cell lines were cocultured with BM-derived DCs (BMDCs) and α-GalCer (100 ng/ml), PI57 (10 μg/ml), or vehicle for 48 hours, with or without pre-incubation with anti-CD1d (10 μg/ml). IFN-γ was measured by ELISA. In FIG. 7B, murine NKT cell lines were cocultured as in 7A with BMDCs from WT, Cd1d^−/−, Myd88^−/−, or Trif^−/− mice. Cells were treated with α-GalCer (100 ng/ml), PI57 (2.5, 5, or 10 μg/ml), PBS30 (1, 2.5, or 5 μg/ml), or vehicle for 48 hours. IFN-γ and IL-4 were measured by ELISA. […] In FIG. 7D, mouse NKT cell lines were stained with PE-labeled CD1d tetramers of PI57 or α-GalCer at 4° C. for 45 minutes or 37° C. for 25 minutes, and with anti-TCRβ-APC antibody. Top: Lymphocytes were gated in the FSC/SSC window. Bottom: Percentage of CD1d tetramer+ cells. […] In FIG. 7G, CD1d Fc-coated Maxisorp plates were loaded with lipid and cultured with 5×10^4 NKT cells. IFN-γ was analyzed by ELISA after 24 hours. Data represent 3 or 5 independent experiments.
NKT cell hybridomas were established from C57BL/6 thymic NKT cells by fusion with thymoma BW5147 as previously described (61).
Culture wells were coated with recombinant CD1/β2m dimer proteins (Becton Dickinson) according to the manufacture's protocols. […] Cytokines in the culture supernatants were determined by ELISA.

A further assay concerns pulmonary NKT cells. As to the kind of experiment: Lung NKT cell subsets (CD4+, DN) by FACS after i.p. glycolipid in 2 week-old mice. In kind it is in vivo, mouse. The settings on record: i.p. PI57 50 μg or α-GalCer 2 μg, lung 2 wks later. On the procedure: In FIGS. 6A-6B, two-week-old BALB/c mice (n=6-8/group) (6A) or Tbet^−/− mice (6B) (n=4-6 per group) received 5 μg […] (cGal), 2 μg α-GalCer, or vehicle. After OVA sensitization and challenge, AHR was measured on day 44. In FIG. 6C, donor mice were treated with α-C-GalCer (5 μg) or vehicle i.p. NKT cells served as donors, as in FIG. 4A (n=4 per group). Lung resistance (left) and cell counts in BAL (right) were assessed. […] In FIG. 6E, mice received PI57 (50 μg), α-GalCer (2 μg), or vehicle i.p., and lungs were examined 1 or 14 days later for CD4 and CD8 expression. In FIG. 6F, absolute numbers of CD4^+ NKT and DN NKT subsets from 6E were assessed. In FIG. 6G, BALB/c mice (n=5-8/group) received PI57 or vehicle i.p. Lung resistance (left) and BAL cells (right) were assessed. In FIG. 6H, BALB/c mice treated with PI57 (50 μg), PBS30 (Sphingomonas glycolipid) (50 μg), or vehicle i.p. were assessed for AHR as in 6G. In FIG. 6I, donor mice were treated with PI57 (50 μg) or vehicle i.p. NKT cells served as donors as in FIG. 4A. Lung resistance (left) and BAL cells (right) were assessed (n=4 per group). […]
Cells were preincubated with anti-Fey blocking mAb (2.4G2) and washed before staining. […] Cells were analyzed on a BDCanto flow cytometer (BD Biosciences) using FlowJo 8.3.3 software (Tree Star, Inc.).
Background: In flow cytometry, cells or beads pass a laser one at a time.

In a further assay the test system is murine NKT cell lines. As to the kind of experiment: Mouse NKT cell lines cocultured with BM-derived DCs, cytokine ELISA. In kind it is cell-based. The following applies: 48 hours. The method, then: as §1
To establish mouse NKT cell lines, NKT cells were purified by a two-step sorting strategy using MACS. Spleen cells from BALB/c or BALB/c Vα14Jα18 Tg mice were depleted of T cells, B cells, granulocytes, macrophages and DCs by AutoMacs, then stained with PE conjugated-CD1d tetramer and FITC conjugated-anti-TCRβ mAb, and sorted using a MoFlo cell sorter (Dako). The purity of the sorted cells was >99%. To propagate the cells, sorted NKT cells were cultured in 96-well flat-bottom plates (1×10^5 cells/well) with 5×10^3 bone-marrow derived DC in the presence of murine IL-15 (Pepro Tech). Cells were subcultured and restimulated with fresh DCs once a week.
Mouse or human IL-4 and IFN-γ levels were measured by ELISA, as previously described (20). Mean values of triplicate cultures were shown. Data are representative of two or three independent experiments.

These results are taken from US9657046B2, “Methods for the treatment and prevention of inflammatory diseases” (Children's Medical Center Corporation, priority 2010, dated 2017).

On to `CCCCCCCCCCCCCC(=O)OC[C@H]1O[C@H](O[C@H]2CC[C@@]3(C)C(=CC[C@H]4[C@@H]5CC[C@H]([C@H](C)CCCC(C)C)[C@@]5(C)CC[C@@H]43)C2)[C@H](O)[C@@H](O)[C@@H]1O` [PI57, Cholesteryl 6-O-tetradecanoyl-α-D-glucopyranoside], for which, in assay [1], the “IL-2 production by Vα14 NKT cell hybridomas” value is “produced IL-2”. Also, the “number of NKT cells (CD4+ and DN subsets) in the lung” value in the assay on pulmonary NKT cells is “increased the total number of NKT cells, particularly the number of DN NKT cells”. The “cytokine production with DCs from CD1d−/− mice” value in the assay on murine NKT cell lines (BMDCs from Cd1d−/− mice) is given as “failed to support PI57 induced cytokine production”. Besides, the “cytokine production with DCs from MyD88−/− or Tri−/− mice” value with murine NKT cell lines (BMDCs from Myd88−/− or Trif−/− mice) is “induced cytokine production”. The “IFN-γ production by NKT cell lines + dendritic cells” value in the assay with murine NKT cell lines (PI57 10 μg/ml, BMDCs) is listed as “induced the production of IFN-γ in a CD1d-restricted manner”. Besides, the “cytokine (IFN-γ) production after pre-incubation with anti-CD1d mAb” value in the assay with murine NKT cell lines (PI57 10 μg/ml, anti-CD1d 10 μg/ml) was “blocked”. Moreover, the “IFN-γ and IL-4 production compared to PBS30 or α-GalCer” value in the assay on murine NKT cell lines (WT BMDCs, PI57 2.5, 5 or 10 μg/ml) was “induced IFN-γ and less IL-4”.
